# PubChem BioAssay (NCI)
#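 How tested: cells in 96-well plates exposed to compound for 48 hours at five concentrations. TGI denotes the concentration required for complete inhibition of growth.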
# Tests used:
# Assay in all cases: growth of human tumour cells (NCI), 48 h
# 786-0 renal = tested on: 786-0 renal
# A498 renal = tested on: A498 renal
# A549 NSCLC = tested on: A549 NSCLC
# ACHN renal = tested on: ACHN renal
# CCRF-CEM leukemia = tested on: CCRF-CEM leukemia
# HCC-2998 colon = tested on: HCC-2998 colon
# HL-60(TB) leukemia = tested on: HL-60(TB) leukemia
# HOP-62 NSCLC = tested on: HOP-62 NSCLC
# HT29 colon = tested on: HT29 colon
# IGROV1 ovarian = tested on: IGROV1 ovarian
# K-562 leukemia = tested on: K-562 leukemia
# KM12 colon = tested on: KM12 colon
# LOX IMVI melanoma = tested on: LOX IMVI melanoma
# MALME-3M melanoma = tested on: MALME-3M melanoma
# MDA-MB-231 breast = tested on: MDA-MB-231 breast
# MDA-N = tested on: MDA-N
# NCI-H522 lung = tested on: NCI-H522 lung
# TK-10 renal = tested on: TK-10 renal
# UACC-257 melanoma = tested on: UACC-257 melanoma
Compound,TGI (786-0 renal),TGI (A498 renal),TGI (A549 NSCLC),TGI (ACHN renal),TGI (CCRF-CEM leukemia),TGI (HCC-2998 colon),TGI (HL-60(TB) leukemia),TGI (HOP-62 NSCLC),TGI (HT29 colon),TGI (IGROV1 ovarian),TGI (K-562 leukemia),TGI (KM12 colon),TGI (LOX IMVI melanoma),TGI (MALME-3M melanoma),TGI (MDA-MB-231 breast),TGI (MDA-N),TGI (NCI-H522 lung),TGI (TK-10 renal),TGI (UACC-257 melanoma)
COC(=O)c1ccc2c(c1)CC1(C2)Cc2cc3c(cc2C1=O)CCC3 (stereo not given),> 100 µM,> 100 µM,> 100 µM,> 100 µM,52.7 µM,> 100 µM,39.8 µM,> 100 µM,34.7 µM,> 100 µM,> 100 µM,23.1 µM,94.2 µM,82.8 µM,> 100 µM,61.1 µM,> 100 µM,> 100 µM,46.7 µM
CC(C)NC(=O)OCc1c(COC(=O)NC(C)C)c(-c2ccc[n+](COC(=O)CC(C)(C)C)c2)n2c1CCC2,> 100 µM,> 100 µM,> 100 µM,> 100 µM,> 100 µM,> 100 µM,> 100 µM,> 100 µM,> 100 µM,> 100 µM,> 100 µM,> 100 µM,> 100 µM,> 100 µM,> 100 µM,> 100 µM,> 100 µM,> 100 µM,> 100 µM
CC(=O)NNc1nc(C)c(C(/C=C/c2cccc([N+](=O)[O-])c2)=N/NC(=S)NN)s1,> 100 µM,> 100 µM,> 100 µM,> 100 µM,> 100 µM,> 100 µM,> 100 µM,> 100 µM,> 100 µM,> 100 µM,> 100 µM,> 100 µM,> 100 µM,> 100 µM,> 100 µM,> 100 µM,> 100 µM,> 100 µM,> 100 µM
C=C(C)[C@@H](C(=O)OC)N1C(=O)c2ccccc2C1=O,> 100 µM,> 100 µM,> 100 µM,> 100 µM,> 100 µM,> 100 µM,> 100 µM,> 100 µM,> 100 µM,> 100 µM,> 100 µM,> 100 µM,> 100 µM,> 100 µM,> 100 µM,> 100 µM,> 100 µM,> 100 µM,> 100 µM
N#Cc1nc(COCCOCc2ccccc2)oc1N,> 100 µM,> 100 µM,> 100 µM,> 100 µM,> 100 µM,> 100 µM,> 100 µM,> 100 µM,> 100 µM,> 100 µM,> 100 µM,> 100 µM,> 100 µM,> 100 µM,> 100 µM,> 100 µM,> 100 µM,> 100 µM,> 100 µM
COc1cc(C2c3cc4c(cc3[C@H](OCCN(C)C)[C@@H]3COC(=O)C23)OCO4)cc(OC)c1O (stereo not given in full),0.439 µM,1.22 µM,1.34 µM,0.253 µM,1.73 µM,2.55 µM,0.118 µM,0.366 µM,3.01 µM,7.5 µM,15.9 µM,8.95 µM,0.803 µM,1.73 µM,39.3 µM,30 µM,2.35 µM,17.9 µM,11.4 µM
O=C(CNc1ccc(Cl)cc1)Nn1c(-c2ccccc2)nc2ccccc2c1=O,10.2 µM,29.7 µM,29.4 µM,22.3 µM,9.48 µM,23.5 µM,32.1 µM,19.9 µM,21.1 µM,15.7 µM,14.3 µM,24.5 µM,4.12 µM,13.7 µM,13.6 µM,22.5 µM,11.5 µM,30.5 µM,33.2 µM
O=[N+]([O-])C(C(Cl)=C(Cl)Cl)=C(N1CCOCC1)N1CCOCC1,> 100 µM,> 100 µM,> 100 µM,> 100 µM,> 100 µM,> 100 µM,> 100 µM,> 100 µM,> 100 µM,> 100 µM,> 100 µM,> 100 µM,> 100 µM,> 100 µM,> 100 µM,> 100 µM,> 100 µM,> 100 µM,> 100 µM
Cc1[nH]c(=O)[nH]c(=S)c1C(=O)NC(C)(CO)CO,> 100 µM,> 100 µM,> 100 µM,> 100 µM,> 100 µM,> 100 µM,> 100 µM,> 100 µM,> 100 µM,> 100 µM,> 100 µM,> 100 µM,> 100 µM,> 100 µM,> 100 µM,> 100 µM,> 100 µM,> 100 µM,> 100 µM
CN1CCC(OC(=O)Oc2ccccc2)(c2ccccc2)CC1,> 100 µM,56.4 µM,> 100 µM,> 100 µM,55.1 µM,38.3 µM,36.6 µM,40.6 µM,26 µM,64.5 µM,55.3 µM,37.5 µM,34 µM,32.5 µM,29.1 µM,34.9 µM,49.8 µM,37.7 µM,34 µM
